Measurements reported in patent US20090023744A1, “COMBINATION THERAPY FOR DEPRESSION” (The General Hospital Corporation, priority 2007, published 2009).
“Also recorded” adds a separate entry of the source.

Experiments:
[1] = test system: major depressive disorder (MDD); assay: Clinical case report: treatment of recurrent MDD with buspirone and bupropion; assay type: in vivo, human; conditions: same patient remaining on bupropion 150 SR q.d. alone
Excerpt: A person with a history of recurrent episodes of MDD presented with a recurrence of their MDD in the context of their having been off antidepressant medications. […] At the time of the initiation of this treatment combination, the patient reported depressed mood, irritability, decreased sleep and appetite, and fatigue, as well as reduced interest.

[2] = target: T1, 5-HT2C receptor (Homo sapiens, UniProt P28335); conditions: reference [2]; cited from earlier work
T1 sequence (P28335 33-458): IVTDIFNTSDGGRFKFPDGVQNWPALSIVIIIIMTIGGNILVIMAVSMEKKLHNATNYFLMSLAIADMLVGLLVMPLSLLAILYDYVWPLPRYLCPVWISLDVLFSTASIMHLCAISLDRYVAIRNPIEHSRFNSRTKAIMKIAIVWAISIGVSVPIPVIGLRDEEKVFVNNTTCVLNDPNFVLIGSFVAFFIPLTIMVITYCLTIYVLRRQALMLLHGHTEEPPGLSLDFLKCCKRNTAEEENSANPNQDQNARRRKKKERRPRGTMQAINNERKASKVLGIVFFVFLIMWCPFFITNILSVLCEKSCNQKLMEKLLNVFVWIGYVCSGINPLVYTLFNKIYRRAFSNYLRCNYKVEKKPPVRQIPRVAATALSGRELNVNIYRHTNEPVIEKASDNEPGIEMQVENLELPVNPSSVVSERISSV

[3] = target: T1, 5-HT2C receptor; conditions: reference [2]; cited from earlier work; remark: listed apart in the source

Row | insomnia after discontinuation of buspirone [1] | Compound | depressive symptoms after discontinuation of buspirone [1] | affinity for 5-HT2C receptors [2] | 5-HT2C receptor antagonist activity [3]
1 | improvement of their insomnia | CC(NC(C)(C)C)C(=O)c1cccc(Cl)c1 (racemic) [bupropion, (±)-1-(3-chlorophenyl)-2-[(1,1-dimethylethyl)amino]-1-propanone] | depressive symptoms quickly returned; also recorded: not sufficient to lead to antidepressant response | – | –
2 | – | O=C1CC2(CCCC2)CC(=O)N1CCCCN1CCN(c2ncccn2)CC1 [buspirone, 8-[4-[4-(2-pyrimidinyl)-1-piperazinyl)butyl)-8-azaspiro[4,5]decane-7,9-dione] | – | low affinity | weak
